Experimental data from patent US11433090B2, “mTOR-inhibitor-containing medicine for treating or preventing ophthalmic symptoms, disorders, or diseases, and application thereof” (The Doshisha, priority 2017, dated 2022).

Test system: caspase 3/7
Assay: Caspase-Glo 3/7 Assay in iFECD stimulated with TGF-β2
Assay type: cell-based, human
Conditions: TGF-β2 10 ng/ml, Dunnett-t test, n=5
Protocol: The medium was removed from a culture dish in which iFECDs were being cultured, and the cells were supplemented with 1×PBS (−) that was preheated to 37° C., and were washed. This was repeated twice. The cells were supplemented again with 1×PBS (−) and incubated for 3 minutes at 37° C. (5% CO2). After removing the PBS (−), the cells were supplemented with 0.05% Trypsin-EDTA (Nacalai Tesque, 32778-34) and incubated for 5 minutes at 37° C. (5% CO2). The cells were then suspended in a medium, and collected by centrifugation at 1500 rpm for 3 minutes. DMEM (Nacalai Tesque, 08456-36)+10% FBS (Biowest, S1820-500)+1% P/S (Nacalai Tesque, 26252-94) was used as the medium.
Corneal endothelial cells from immortalized FECD patients (lot: iFECD3-5) were seeded on a 96-well plate at a ratio of 4×10^3 cells per well and cultured for 24 hours at 37° C. (5% CO2) (medium: DMEM+10% FBS+1% P/S). After 24 hours, the medium was removed. Each mTOR inhibitor was added to culture the cells for 24 hours (medium: DMEM+2% FBS+1% P/S). After 24 hours, the medium was removed. Media containing 10 ng/ml of Recombinant Human TGF-β2 (Wako, 200-19911) and each mTOR inhibitor were added to culture the cells for 24 hours (medium: DMEM+2% FBS+1% P/S). After 24 hours, the cell morphology and apoptosis were observed under a phase difference microscope.
After observation, measurement of caspase 3/7 activity by Caspase-Glo® 3/7 Assay was carried out with the following procedure.
The medium was discarded to achieve 50 μl per well. 50 μl/well of Caspase Glo® 3/7 Assay Reagent (mixture of Caspase-Glo® 3/7 Assay Buffer and Caspase-Glo® 3/7 Assay Substrate) (Promega, G8091) solution was added so as to achieve 1:1 with the medium. The operations hereafter were carried out while being shaded. A shaker was used to mix the content well for two minutes at about 120 minutes^−1 to then be left for 40 minutes at room temperature. After being left, 80 μl was moved to Assay plate (Corning, 3912, Assay plate 96 well, white polystyrene) and […] was measured using GloMax-Multi Detection System (Promega, E7051).
The following mTOR inhibitors were used in this Example. • Rapamycin (Wako, #53123-88-9) • Everolimus (Cayman Chemical, #11597) • Temsirolimus (Tocris Bioscience, #5264) • PI-103 (Cayman Chemical, #10009209) • CC-223 (Cayman Chemical, #19917) • INK128 (Cayman Chemical, #11811) • AZD8055 (Cayman Chemical, #16978) • KU 0063794 (Tocris Bioscience, #3725)

CC(C)n1nc(-c2ccc3oc(N)nc3c2)c2c(N)ncnc21 [INK128]
activity of caspase 3/7 compared to control (0.001 μM): significantly suppressed | activity of caspase 3/7 compared to control (0.01 μM): significantly suppressed | activity of caspase 3/7 compared to control (0.1 μM): significantly suppressed | activity of caspase 3/7 compared to control (1 μM): significantly suppressed

CO[C@H]1C[C@@H]2CC[C@@H](C)[C@@](O)(O2)C(=O)C(=O)N2CCCC[C@H]2C(=O)O[C@H]([C@H](C)C[C@@H]2CC[C@@H](OC(=O)C(C)(CO)CO)[C@H](OC)C2)CC(=O)[C@H](C)/C=C(\C)[C@@H](O)[C@@H](OC)C(=O)[C@H](C)C[C@H](C)/C=C/C=C/C=C/1C [temsirolimus, Temsirolimus]
activity of caspase 3/7 compared to control (0.000001 μM): significant difference was not found | activity of caspase 3/7 compared to control (0.00001 μM): significantly suppressed | activity of caspase 3/7 compared to control (0.0001 μM): significantly suppressed | activity of caspase 3/7 compared to control (0.001 μM): significantly suppressed | activity of caspase 3/7 compared to control (0.01 μM): significantly suppressed | activity of caspase 3/7 compared to control (0.1 μM): significantly suppressed | activity of caspase 3/7 compared to control (1 μM): significantly suppressed | activity of caspase 3/7 compared to control (10 μM): significantly suppressed

CO[C@H]1C[C@@H]2CC[C@@H](C)[C@@](O)(O2)C(=O)C(=O)N2CCCC[C@H]2C(=O)O[C@H]([C@H](C)C[C@@H]2CC[C@@H](OCCO)[C@H](OC)C2)CC(=O)[C@H](C)/C=C(\C)[C@@H](O)[C@@H](OC)C(=O)[C@H](C)C[C@H](C)/C=C/C=C/C=C/1C [everolimus, Everolimus]
activity of caspase 3/7 compared to control (0.00001 μM): significantly suppresses | activity of caspase 3/7 compared to control (0.0001 μM): significantly suppressed | activity of caspase 3/7 compared to control (0.001 μM): significantly suppressed | activity of caspase 3/7 compared to control (0.01 μM): significantly suppressed | activity of caspase 3/7 compared to control (0.1 μM): significantly suppressed

Oc1cccc(-c2nc(N3CCOCC3)c3oc4ncccc4c3n2)c1 [PI-103]
activity of caspase 3/7 compared to control (0.001 μM): significantly suppressed | activity of caspase 3/7 compared to control (0.01 μM): significantly suppressed | activity of caspase 3/7 compared to control (0.1 μM): significantly suppressed | activity of caspase 3/7 compared to control (1 μM): significant difference was not found

COc1ccc(-c2ccc3c(N4CCOCC4)nc(N4C[C@@H](C)O[C@@H](C)C4)nc3n2)cc1CO [KU 0063794]
activity of caspase 3/7 compared to control (0.001 μM): significant difference was not found | activity of caspase 3/7 compared to control (0.01 μM): significant difference was not found | activity of caspase 3/7 compared to control (0.1 μM): significantly suppressed | activity of caspase 3/7 compared to control (1 μM): significantly suppressed

COc1ccc(-c2ccc3c(N4CCOC[C@@H]4C)nc(N4CCOC[C@@H]4C)nc3n2)cc1CO [AZD8055]
activity of caspase 3/7 compared to control (0.01 μM): significantly suppressed | activity of caspase 3/7 compared to control (0.1 μM): significantly suppressed | activity of caspase 3/7 compared to control (1 μM): significantly suppressed

CO[C@H]1CC[C@H](N2C(=O)CNc3ncc(-c4ccc(C(C)(C)O)nc4)nc32)CC1 [CC-223]
activity of caspase 3/7 compared to control (0.001 μM): significantly suppressed | activity of caspase 3/7 compared to control (0.01 μM): significantly suppressed | activity of caspase 3/7 compared to control (0.1 μM): significantly suppressed | activity of caspase 3/7 compared to control (1 μM): significantly suppressed
